Structure (SMILES) | melting point [°C]
CC(=O)c1ccc(O)c(C(N)=O)c1 | 221 to 226
S=C=Nc1ccc2c(c1)OCCO2 | 64 to 66
CCS(=O)(=O)c1nc2ccccn2c1S(=O)(=O)NC(=O)Nc1nc(OC)cc(OC)n1 | 202
CC(=O)OC1C2COC(O2)C(OC(C)=O)C1OC(C)=O (stereo not drawn) | 110
O=C1C=CC(=O)N1c1ccccc1N1C(=O)C=CC1=O | 245 to 248
N#CCS(=O)(=O)c1ccc(Cl)cc1Cl | 118 to 121
CC(=O)C1CCC2C3CCC4CC(O)CCC4(C)C3CCC12C (stereo not drawn) | 194
COC(=O)[C@@H]1C[C@@H]2CSCN2[C@@]12C(=O)c1cccc3cccc2c13 | 172
O=C(O)c1c(F)c(F)c(F)c(C(=O)O)c1F | 209 to 213
Cc1cc(S(=O)(=O)Cl)c(Cl)cc1Cl | 72
N#Cc1ccccc1I | 55
COc1ccc(C2(C(=O)O)CCCC2)cc1 | 151 to 156
CC1(C)OC2C(CO)OC(n3ccc(=O)[nH]c3=O)C2O1 (stereo not drawn) | 163 to 166
OCc1ccc(-c2cc(C(F)(F)F)cc(C(F)(F)F)c2)o1 | 110 to 113
O=C(O)c1cccc(SC(F)(F)F)c1 | 73
O=C(c1ccccc1)c1cc2c(cc1Br)OCCCO2 | 105 to 107
COc1ccc(N/N=C2\C(=O)N(CO)N=C2C(F)(F)F)cc1 | 142
CC(=O)CC(c1ccc(Cl)cc1)c1c(O)c2ccccc2oc1=O (stereo not drawn) | 170
Cc1cc2c(c(C)c1C)CC2=O | 86
CCC(=O)c1ccc(N)cc1 | 140
CNC(=Nc1cc(C)ccn1)SC | 78 to 81
CCCC[N+](=O)[O-] | -81.3
BrCc1ccc(-c2csnn2)cc1 | 135 to 137

Structure (SMILES) | melting point [°C]
Cc1nn(C)c(Cl)c1I | 64 to 65
O=S(=O)(Cl)c1ccc2ncsc2c1 | 118 to 119
C1CN2CCC1CC2 | 158
CCCC(C)I (stereo not drawn) | -50
O=S(=O)(Cl)c1c(Cl)ccc2nonc12 | 73 to 75
ClCc1noc(-c2ccccc2)n1 | 64
OCCC(F)(F)C(F)(F)C(F)(F)C(F)(F)C(F)(F)C(F)(F)C(F)(F)C(F)(F)F | 46.2
COc1ccc2c3c1OC1C(=O)CCC4(O)C(C2)N(C)CCC314 (stereo not drawn) | 219
CC(C)CCCC(C)C1CCC2(C)C1(C)CCC13OC21CCC1C(C)C(O)CCC13C (stereo not drawn) | 161 to 163
Cc1oncc1I | 27 to 28
CC1=CC(=O)c2c(O)cccc2C1=O | 78.5
c1ccc(Oc2ccccc2-c2ccccc2)cc1 | 49
N#Cc1ccncc1Cl | 72.5
c1ccc2cc(SSc3ccc4ccccc4c3)ccc2c1 | 140
O=C1NC(=O)C(=NNc2ccc(Cl)cc2)C(=O)N1 | 353
C#CCn1ccc2cc(C(=O)OC)ccc21 | 94 to 96
N#CCc1cc(F)cc(F)c1 | 35
O=C(O)c1ccc(-n2cccc2)cc1 | 288 to 291
CN1CCc2cc(O)c(O)cc2C1 | 255
NNc1c2ccccc2nc2ccccc12 | 177
C=CCc1cc(OC)c(O)c(C(=O)NCCO)c1 | 95
Brc1c[nH]cn1 | 126 to 132
O=C(O)c1cccc(-c2cccnc2)c1 | 202 to 206

Structure (SMILES) | melting point [°C]
[O-][N+](=Nc1cccc(O)c1)c1cccc(O)c1 | 183
COc1cc(F)c(F)cc1CBr | 42
Nc1c(I)cc([N+](=O)[O-])cc1I | 251 to 256
CC(=O)OCC(=O)O | 67.5
FC(F)(Br)C(F)(F)Br | -110
CC(=O)Oc1cccc(I)c1 | 38
O=[N+]([O-])c1ccc(OCCN2CCOCC2)cc1 | 84 to 86
N#CCC(=O)c1cccc(Cl)c1 | 81
CCCCOCCOP(=O)(OCCOCCCC)OCCOCCCC | -70
Cc1nc(-c2ccc(C(=O)Cl)cc2)cs1 | 120 to 122
CC(=O)N1c2ccccc2CC1c1ccccc1 (stereo not drawn) | 129
CC1=CC(=O)C(C(=O)OC2CC(C)CCC2C(C)C)C(C)C1C(=O)OC1CC(C)CCC1C(C)C (stereo not drawn) | 185 to 186
CCOC(=O)c1cc2c(s1)Sc1[nH]c(C(=O)OCC)c(N)c1C2c1ccccc1 (stereo not drawn) | 133
O=[N+]([O-])c1ccccc1OC1OC(CO)C(O)C(O)C1O (stereo not drawn) | 195
C(=N\c1ccc(-c2ccc(/N=N/c3ccccc3)cc2)cc1)/c1ccccc1 | 226
Nc1ccc(SSc2ccc(N)cc2)cc1 | 77
COCc1cc(=O)oc2cc(N)ccc12 | 184
O=C(O)C1(C(=O)Nc2ccc(Cl)cc2Cl)CC1 | 195
FC(F)(F)c1cc(Br)c2nc[nH]c2c1 | 218 to 220
Nc1nc(N)nc(-c2cc(Cl)ccc2Cl)n1 | 268
O=Cc1cc(I)c(O)c(I)c1 | 201
O=C1NC2CC=CCC12 (stereo not drawn) | 122
COC(=O)c1ccc2[nH]cnc2c1 | 139 to 143

Structure (SMILES) | melting point [°C]
O=C(Cl)c1ccc(-n2cccn2)cc1 | 127 to 128
NC(=O)c1sccc1Br | 78
O=[N+]([O-])c1ccc(N=Nc2ccc([N+](=O)[O-])cc2)cc1 | 212
Cc1n[nH]c(C)c1-c1ccccc1 | 133 to 134
O=P(O)(O)CCP(=O)(O)O | 218
C=C(C)CCCCCCCCCCC | -22
O=S(=O)(O)c1ccc(Nc2ccccc2)cc1 | 206
CC/C=C(\C)C(=O)O | 24.4
Cn1ccc(-c2ccc(N)cc2)n1 | 125 to 132
COc1cc2c(cc1OCc1ccccc1)C(CC(C)C)N(Oc1c([N+](=O)[O-])cc([N+](=O)[O-])cc1[N+](=O)[O-])CC2 (stereo not drawn) | 173
N#Cc1c(NC(=O)c2ccccc2Cl)sc2c1CCCC2 | 161 to 162
CC12CCC3C4CCC(=O)C=C4CCC3C1CCC2O (stereo not drawn) | 122
Cc1nc2sccn2c1C(=O)O | 164 to 165
Oc1ncc(C(F)(F)F)cc1Cl | 157 to 159
O=C1NC(=O)C(Cl)C(=O)N1 | 320
CC(C)(C)c1cc(C(C)(C)C)cc(C(C)(C)C)c1 | 71
Clc1cccc2cccnc12 | -20
CC(=O)N(C)c1cccc(N(C)C(C)=O)c1 | 152
CC1(C(=O)O)CC2C=CC1C2 (stereo not drawn) | 80
OCC1OC(n2cnc3c(NCc4ccco4)ncnc32)C(O)C1O (stereo not drawn) | 152 to 154
N[C@@H](CCCC(=O)O)C(=O)O | 206
O=C(O)C=CC(=O)Nc1ccc(F)cc1F | 191
CN1CCNC(=O)CCSCCSCCC1=O | 115 to 116

Structure (SMILES) | melting point [°C]
O=C(O)c1cncc(-c2ccco2)c1 | 261 to 263
O=C(Nc1ccccc1Cl)c1ccccc1 | 99
O=C(Nc1ccccc1)c1ccccc1[N+](=O)[O-] | 154
Ic1ccccc1Cn1cncn1 | 67 to 69
C=CC(C)(O)CCC=C(C)CCC=C(C)C (stereo not drawn) | 25
O=C(CBr)c1coc2ccccc12 | 136 to 137
CC(C)(C)OC[C@H](NC(=O)OCC1c2ccccc2-c2ccccc21)C(=O)O | 127 to 131
CCOP(=S)(NC(C)C)Oc1ccccc1C(=O)OC(C)C (stereo not drawn) | -12
CCOC(=O)c1sc(N)c(C(=O)OCC)c1C | 115
Cc1ncc(S(=O)(=O)C(C)(C)C)c(N)n1 | 163 to 166
O=C(Oc1c(F)c(F)c(F)c(F)c1F)c1ccccc1N1CCOCC1 | 87 to 90
CCCOC(=O)C(C)c1ccc(-c2ccccc2)c(F)c1 (stereo not drawn) | > 20
COC(=O)C1(S(=O)(=O)c2ccc([N+](=O)[O-])cc2)CC1 | 127
Cc1ccc2c3c(c4c(c2c1)CCCC4)CCCC3 | 93
Cc1nc(-c2cc(C(=O)O)no2)cs1 | 166 to 167
CCOc1ccc(NC(=O)C(F)(F)C(F)(F)C(F)(F)C(F)(F)C(F)(F)C(F)(F)C(F)(F)C(F)(F)F)cc1 | 135
CC12CCC(C(=O)C1)C2(C)C (stereo not drawn) | 186
CC(C)(C)C1CCCCC1O (stereo not drawn) | 45
COc1nc(Cl)nc(OC)n1 | 77
Cc1c(F)c(F)c(CBr)c(F)c1F | 42
CCOC(=O)C(C#N)c1ccccc1[N+](=O)[O-] (stereo not drawn) | 60
c1ccc(Sc2ccccc2)cc1 | -40
FC(F)(F)OC(F)(I)C(F)(F)F (stereo not drawn) | 44

Structure (SMILES) | melting point [°C]
C=C1OC(=O)OC1(C)C | 26 to 30
COc1cscc1C(N)=O | 120 to 121
CCCCCCCCCC(=O)CCCCCCCCC | 65.5
CCOC(=O)C1=C(N)Oc2ccc(Br)cc2C1C(C#N)C(=O)OCC (stereo not drawn) | 105 to 108
CN1CC2CC(C1)c1cccc(=O)n1C2 (stereo not drawn) | 137
CC(=O)N(C(C)=O)c1ccccc1 | 37.5
Cc1cc(O)cc(O)c1C | 136
CSC(=NS(=O)(=O)c1ccc(Br)cc1)SC | 100 to 105
Clc1cc(Cl)c(Cl)c(Br)c1 | 59
CC(=O)c1ccc(O)c(C)c1O | 154
Cc1nc(-c2ccc(C(F)(F)F)cc2)sc1Br | 68 to 69
CCCCNC(=O)OCC#CI | 66
COC(=O)C1CC2(C(=O)OC)C=CC1C2 (stereo not drawn) | 38
O=Cc1c([N+](=O)[O-])cccc1[N+](=O)[O-] | 119
Cc1cc(C(=O)O)cc(C(=O)O)c1 | 299
CCN(CC)c1cc(Cl)c2nonc2c1[N+](=O)[O-] | 132 to 135
CC12CCC(=O)C(O)=C1CCC1C2CCC2(C)C1CCC2(C)O (stereo not drawn) | 170
O=C(CCCCl)c1ccc(O)cc1 | 113
